# Results published in patent US20050026133A1, “Cryopreservation medium for primate embryo stem cells and cryopreservation method” (ASAHI TECHNO GLASS CORPORATION, priority 2002, published 2005).
# Legend:
# chicken lung cells = conditions: DMSO or glycerin concentrations from 15 to 20%; cited from earlier work
# [1] = test system: Cynomolgus monkey ES cells; test: Alkaline phosphatase activity (ES cell marker) of post-thaw ES cells in culture, fluorometry with 4-methylumbelliferyl phosphate; assay type: cell-based; conditions: for alkaline phosphatase activity of post-thaw ES cells (successful cryopreservation): 8 days of culture
# Protocol: Cynomolgus monkey ES cells were subcultured for 33 passages and dissociated into cell suspension from three 90-mm Petri dishes, and the cell suspension was centrifuged at 1,000 rpm for 5 minutes. The supernatant was removed to obtain a cell precipitate. The cell precipitate was resuspended in 1 ml of a cryopreservation medium containing 20% (V/V) [=22% (W/V)] of DMSO, 40% (V/V) of a serum replacement containing albumin, insulin and transferrin (Knockout Serum Replacement; Invitrogen) [hereinafter referred to as serum replacement (A)] and 40% (V/V) of DMEM:Ham F12=1:1 medium [hereinafter referred to as medium (A)] supplemented with 3 g/l of glucose, 0.5 g/l of CaCl2 0.15 g/l of MgSO4. The cell suspension was transferred to a serum tube, refrigerated to −80° C. at a rate of about 1° C./min in Mr. Frosty is (Nalgen) and then stored in a liquid nitrogen container for about 6 days. The cells were thawed, plated in 60-mm Petri dishes in duplicate and cultured in the medium described in Suemori et al. (2001 Dev. Dyn. Oct; 222(2):273-9). ES cell proliferation was investigated by following the time course of the activity of alkaline phosphatase, which is a marker of ES cells. After 3, 5 and 7 days, the medium was removed from the dishes by aspiration, and the cells were washed with 1 ml of 30 mM Hepes buffer containing 0.1 mg/l of CaCl2 and 0.1 mg/l of MgSO4(7H2O) and treated with 1 ml of 0.2 mM 4-methylumbelliferyl phosphate solution in the same buffer in an incubator at 37° C. for 1 hour. 0.8 ml portions of the reaction mixture were transferred to a 24-well microplate and analyzed by fluorometry at Ex355/Em460. Fluorescence per 1 ml was calculated and plotted. As a control, the alkaline phosphatase activity of the same feeder cells as used during subcultures of ES cells was measured.
# [2] = test system: Cynomolgus monkey ES cells; test: Cell count per Petri dish of post-thaw ES cell culture after trypsinization; assay type: cell-based
# Protocol: After 2, 4, 6 and 7 days, ES cell proliferation was assessed by alkaline phosphatase assay as described in Example 1. After 7 days of culture, the cells on each Petri dish was dissociated by tripsinization and counted.
# (§1) After 2, 4, 6 and 8 days, ES cell proliferation was assessed by alkaline phosphatase assay as described in Example 1. After 8 days of culture, the cells on each Petri dish was dissociated by tripsinization and counted. Colonies of 1 mm or larger formed on the Petri dishes for the respective concentrations were visually counted.
# After 2, 4, 6 and 8 days, ES cell proliferation was assessed by alkaline phosphatase assay as described in Example 1. After 8 days of culture, the cells on each Petri dish was dissociated by tripsinization and counted.
# After 2, 4 and 6 days of culture, ES cell proliferation was assessed by alkaline phosphatase assay as described in Example 1. After 6 days of culture, the cells on each Petri dish was dissociated by tripsinization and counted.
# [3] = test system: Cynomolgus monkey ES cells; test: Post-thaw ES cell colony formation, proliferation to subculturable stage, staining with Vector Red alkaline phosphatase substrate; assay type: cell-based
# Protocol: After completion of the culture, the cells in each Petri dish were fixed with paraformaldehyde and ethanol and stained with Vector Red alkaline phosphatase substrate (Vector Labs).
# After completion of the culture, the cells in each Petri dish were fixed with paraformaldehyde and ethanol and stained with vector Red alkaline phosphatase substrate (Vector Labs). […] Similar staining of the feeder cells gave no stained colonies (FIG. 11).
# as §1
# [4] = test system: Cynomolgus monkey ES cells; test: Differentiation potency of cryopreserved ES cells: teratoma formation after intraperitoneal injection into SCID mice; assay type: in vivo; conditions: Example 3; cells cryopreserved in 20% (V/V) [=22% (W/V)] DMSO, 40% serum replacement (A), 40% medium (A); 10 passages after thawing; 5×10^6 cells i.p. in SCID mice, about 6 weeks
# Protocol: Cynomolgus monkey ES cells subcultured for 35 passages were harvested from three 90-mm Petri dishes and treated by a method similar to that employed in Example 1 to give a cell precipitate. The cell precipitate was resuspended in 1 ml of a cryopreservation medium consisting of 20% (V/V) [=22% (W/V)] of DMSO, 40% (V/V) of serum replacement (A), 40% (V/V) of medium (A). The cell suspension was transferred to a serum tube, refrigerated to −80° C. at a rate of about 1° C./min in Mr. Frosty (Nalgen) and stored in a liquid nitrogen container for 5 day. The cells were thawed and continuously subcultured in duplicate in 35-mm Petri dishes in the medium described in Suemori et al. (2001 Dev. Dyn. Oct;222(2);273-9). Differentiation potency was assessed after 10 passages. The cells were dissociated from the Petri dishes, and 5×10^6 cells were suspended in 0.5 ml of a phosphate buffer and intraperitoneally injected into SCID mice. The mice were fed for about 6 weeks, and teratomas were isolated from the abdomen.
# [5] = test system: embryonic stem cells and embryonic carcinoma cells; conditions: DMSO concentration of above 1% (W/V); cited from earlier work
smiles,measurement,setting,value
OCC(O)CO [glycerin],viability of chicken lung cells,chicken lung cells,did not give high viabilities
same,alkaline phosphatase activity of post-thaw ES cells (successful cryopreservation),"[1]; Example 5, glycerin 10, 20 or 30% (V/V) [12.6, 25.2, 37.8% (W/V)], 20% serum replacement (A), balance medium (A)",increase in alkaline phosphatase activity after 8 days of culture
same,alkaline phosphatase activity of post-thaw ES cells (successful cryopreservation),"[1]; Example 5 comparative, glycerin 5% (V/V) [=6.3% (W/V)]",all the glycerin concentrations but 5% (V/V)
same,cell count per Petri dish in the 8 day culture,"[2]; Example 5, glycerin 10% (V/V) [=12.6% (W/V)] and 20% (V/V) [=25.2% (W/V)]",remarkably great
same,"formation of ES cell colonies (1 mm or larger, visually counted)","[3]; Example 5, glycerin 10% (V/V) [=12.6% (W/V)] or above, 8 day culture",formation of ES cell colonies was confirmed
"C[S+](C)[O-] [DMSO, dimethyl sulfoxide]",tissues found in teratomas (retention of pluripotency),[4],"formation of nerves, muscles and cartilage"
same,viability of chicken lung cells,chicken lung cells,did not give high viabilities
same,time in culture at which cells begin to differentiate,[5],4 days
same,alkaline phosphatase activity of post-thaw ES cells versus feeder cells,"[1]; Example 1, cryopreservation medium with 20% (V/V) [=22% (W/V)] DMSO, 40% serum replacement (A), 40% medium (A), stored about 6 days, culture 3, 5, 7 days",significantly higher alkaline phosphatase activity than the feeder cells
same,alkaline phosphatase activity of post-thaw ES cells versus feeder cells,"[1]; Example 2, 20% (V/V) [=22% (W/V)] DMSO, 40% serum replacement (A), 40% medium (A), stored 1 day, culture 2, 4, 6, 7 days",significantly higher alkaline phosphatase activity than the feeder cells
same,alkaline phosphatase activity of post-thaw ES cells versus feeder cells,"[1]; Example 2 comparative, 10% (V/V) DMSO, 45% serum replacement (A), 45% medium (A), after 7 days",slightly exceeded the feeder cells in alkaline phosphatase activity
same,time course of alkaline phosphatase activity of post-thaw ES cells,"[1]; Example 4, DMSO 12, 15, 20 or 30% (V/V) [13.2, 16.5, 22, 33% (W/V)], equal serum replacement (A) and medium (A), 2, 4, 6, 7 days",time-dependent increase in alkaline phosphatase activity
same,rate of increase of alkaline phosphatase activity versus comparative experiment (10% (V/V) DMSO),"[1]; Example 6, 20% (V/V) DMSO, storage cell densities 1.0, 2.0, 4.0×10^7 cells/2 ml, stored 18 days",alkaline phosphatase activity increased faster at any cell densities than in the comparative experiment
same,alkaline phosphatase activity of post-thaw ES cells,"[1]; Example 7, 20% (V/V) DMSO with 10, 40 or 80% (V/V) serum replacement (A) or fetal bovine serum, 2, 4, 6, 7 days",alkaline phosphatase activity increased
same,rate of increase of alkaline phosphatase activity versus comparative experiment (10% (V/V) DMSO),"[1]; Example 8, 20% (V/V) [=22% (W/V)] DMSO, 20% serum replacement (A), 60% medium (A), 2, 4, 6 days",increased significantly faster
same,cell count per Petri dish in the 7 day culture versus comparative experiment (10% or 50% (V/V) DMSO),"[2]; Example 4, DMSO 15% (V/V) [=16.5% (W/V)] and 20% (V/V) [=22% (W/V)]",remarkably greater
same,cell count per Petri dish after 8 days of culture versus comparative experiment (10% (V/V) DMSO),"[2]; Example 6, 20% (V/V) DMSO, storage cell densities 1.0, 2.0, 4.0×10^7 cells/2 ml",greater than that in the comparative experiment
same,cryopreservation success by cell count per Petri dish after 7 days of culture,"[2]; Example 7, 20% (V/V) DMSO with 10, 40 or 80% (V/V) serum replacement (A) or fetal bovine serum",Successful cryopreservation was confirmed at any supplement concentrations
same,"cell count per Petri dish after 6 days of culture, 20% (V/V) DMSO relative to 10% (V/V) DMSO","[2]; Example 8, 20% serum replacement (A), 2.2×10^7 cells/2 ml, stored 1 day",6 times
same,time after thawing until the cells could be subcultured,"[3]; Example 1, 20% (V/V) DMSO, 40% serum replacement (A), 40% medium (A)",1 week
same,colonies stained with Vector Red alkaline phosphatase substrate,"[3]; Example 1, 20% (V/V) DMSO, after completion of the culture",numerous successfully stained colonies
same,ES cell proliferation and differentiated colonies after post-thaw passage,"[3]; Example 1, 20% (V/V) DMSO, three-fold dilution followed by 3 days of subculture",successful proliferation of ES cells was observed without formation of differentiated colonies
same,ES cell proliferation and differentiated colonies after 7 days of prolonged culture,"[3]; Example 2, 20% (V/V) DMSO",successful proliferation of ES cells was observed without formation of differentiated colonies
same,time after thawing until the cultures were able to be subcultured,"[3]; Example 2, 20% (V/V) DMSO",5 days
same,colonies stained with Vector Red alkaline phosphatase substrate,"[3]; Example 2, 20% (V/V) DMSO, 7 days after thawing",numerous successfully stained colonies
same,ES cell proliferation after 7 days of prolonged culture,"[3]; Example 2 comparative, 10% (V/V) DMSO","proliferation was recognized to a certain degree, though far below that of the cells in the illustrative experiment"
same,reaching the subculturable stage after thawing,"[3]; Example 2 comparative, 10% (V/V) DMSO, 5 days",could not reach the stage at which they were able to be subcultured after 5 days
same,colonies stained with Vector Red alkaline phosphatase substrate,"[3]; Example 2 comparative, 10% (V/V) DMSO, 7 days after thawing",a few successfully stained colonies were observed
